Data published in paper PMC5769128, “Human UDP-Glucuronosyltransferase 2B4 and 2B7 Are Responsible for Naftopidil Glucuronidation in Vitro” (Frontiers in Pharmacology, 2018).

Key:
[1] = tested on: human liver microsomes (HLM); assay: Kinetics of NAF enantiomer glucuronidation by human liver microsomes; assay type: in vitro ADME
Procedure: (§1) All glucuronidation assays were conducted in an incubation volume of 200 μL. Incubations were performed at 37°C in 50 mM Tris–HCl buffer (pH 7.5) with 10 mM magnesium chloride, 1 mg protein/mL of enzyme (microsomes and recombinant human UGTs), alamethicin (100 μg of alamethicin/mg microsomal protein), and NAF enantiomers (2.5–80 μM). The reaction was initiated by the addition of UDPGA (5 mM) and incubated at 37°C in a shaking water bath for 45 min. The reaction was terminated by the addition of 200 μL of ice-cold acetonitrile containing the IS (1 μM) and then centrifuged at 5000 ×g for 10 min at 4°C. The supernatant fraction was injected into the RRLC-MS/MS apparatus. Protein concentration (0.5–2 mg/mL) and incubation time (15–180 min) were optimized in preliminary studies to be within initial linear rate conditions.
(§2) Kinetic parameters were assessed in the HLM, RLM, HKM, RKM, and recombinant human UGTs (UGT2B4, 2B7, and 1A9).

[2] = as above; assay type: in vitro ADME; conditions: human, human liver microsomes, pH 7.5; NAF glucuronidation by HLM; 2.5–80 μM substrate, 45 min
Procedure: as §1, §2

UGT2B15 = target: T1, UGT2B15 (Homo sapiens, UniProt P54855); assay: Inhibition screening of recombinant UGTs by NAF enantiomers, UGT2B15 (4-MU); assay type: in vitro ADME; conditions: recombinant UGT2B15, probe 4-MU, 100 μM NAF enantiomer, read-out: Inhibition of 4-MU-G formation
T1 construct: purchased BD Gentest
T1 sequence (P54855 24-530): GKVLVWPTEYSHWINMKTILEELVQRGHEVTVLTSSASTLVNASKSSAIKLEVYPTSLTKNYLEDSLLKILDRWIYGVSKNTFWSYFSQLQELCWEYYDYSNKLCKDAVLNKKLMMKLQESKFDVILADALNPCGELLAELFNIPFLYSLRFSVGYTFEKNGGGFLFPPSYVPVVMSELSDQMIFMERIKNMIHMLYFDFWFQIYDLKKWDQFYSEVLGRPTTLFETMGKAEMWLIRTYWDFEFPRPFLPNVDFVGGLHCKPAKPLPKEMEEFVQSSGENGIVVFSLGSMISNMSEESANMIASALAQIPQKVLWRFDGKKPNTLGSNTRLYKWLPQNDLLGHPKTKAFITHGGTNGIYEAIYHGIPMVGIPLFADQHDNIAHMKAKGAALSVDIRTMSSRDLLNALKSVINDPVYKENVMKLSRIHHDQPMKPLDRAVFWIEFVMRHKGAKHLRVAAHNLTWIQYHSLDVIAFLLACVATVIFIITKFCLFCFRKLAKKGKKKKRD
Procedure: The inhibition screening study was performed by investigating the 12 recombinant UGTs with 10 and 100 μM NAF enantiomer. […] 4-MU, as a non-specific substrate, was added to the other incubated samples. Instead of NAF enantiomers, the same volume of water was added to be the control sample. […] The formation of 4-MU-G and TFP-G produced from the 12 incubation system were analyzed by HPLC. The instrument parameters for the LC were as follows: system, Agilent 1260; Agilent Eclipse Plus C18 (2.1 mm × 50 mm, 1.8 μm, Santa Clara, CA, United States); mobile phase, methanol: 0.1% formic acid in water (0–3 min, 35:65; 3.1–4.5 min, 65:35; 4.6–5 min, 35:65); flow rate, 0.4 mL/min; column temperature, 25°C; and injection volume, 2 μL. The retention times of 4-MU, 4-MU-G, TFP, TFP-G, and MU (IS) were 1.5, 0.5, 2.2, 1.8, and 1.0 min, respectively.

recombinant human UGT2B4 = target: T2, recombinant human UGT2B4 (Homo sapiens, UniProt P06133); assay: Kinetics of NAF enantiomer glucuronidation by recombinant UGT2B4; assay type: in vitro ADME
T2 construct: purchased BD Gentest
T2 sequence (P06133 24-528): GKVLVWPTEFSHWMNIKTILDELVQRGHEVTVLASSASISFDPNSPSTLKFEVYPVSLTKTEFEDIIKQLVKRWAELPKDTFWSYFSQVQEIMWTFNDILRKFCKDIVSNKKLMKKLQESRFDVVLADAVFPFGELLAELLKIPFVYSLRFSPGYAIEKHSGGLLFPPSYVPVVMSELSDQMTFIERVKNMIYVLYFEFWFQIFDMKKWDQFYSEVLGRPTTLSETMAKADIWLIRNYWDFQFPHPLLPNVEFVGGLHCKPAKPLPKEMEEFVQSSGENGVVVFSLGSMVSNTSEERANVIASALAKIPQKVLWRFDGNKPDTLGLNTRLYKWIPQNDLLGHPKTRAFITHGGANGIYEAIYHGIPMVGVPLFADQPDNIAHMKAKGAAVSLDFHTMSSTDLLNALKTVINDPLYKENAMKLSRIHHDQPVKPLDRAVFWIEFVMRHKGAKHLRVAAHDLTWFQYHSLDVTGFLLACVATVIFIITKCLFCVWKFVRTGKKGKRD
Procedure: as §1, §2

[3] = Kinetics of NAF enantiomer glucuronidation by human kidney microsomes; assay type: in vitro ADME; conditions: human, human kidney microsomes, pH 7.5; NAF glucuronidation by HKM
Procedure: as §1, §2

[4] = tested on: human kidney microsomes (HKM); assay: as above; assay type: in vitro ADME
Procedure: as §1, §2

recombinant human UGT1A6 = target: T3, recombinant human UGT1A6 (Homo sapiens, UniProt P19224); assay: UGT reaction screening of NAF enantiomers, UGT1A6; conditions: 10 μM substrate, 45 min
T3 sequence (P19224 27-532): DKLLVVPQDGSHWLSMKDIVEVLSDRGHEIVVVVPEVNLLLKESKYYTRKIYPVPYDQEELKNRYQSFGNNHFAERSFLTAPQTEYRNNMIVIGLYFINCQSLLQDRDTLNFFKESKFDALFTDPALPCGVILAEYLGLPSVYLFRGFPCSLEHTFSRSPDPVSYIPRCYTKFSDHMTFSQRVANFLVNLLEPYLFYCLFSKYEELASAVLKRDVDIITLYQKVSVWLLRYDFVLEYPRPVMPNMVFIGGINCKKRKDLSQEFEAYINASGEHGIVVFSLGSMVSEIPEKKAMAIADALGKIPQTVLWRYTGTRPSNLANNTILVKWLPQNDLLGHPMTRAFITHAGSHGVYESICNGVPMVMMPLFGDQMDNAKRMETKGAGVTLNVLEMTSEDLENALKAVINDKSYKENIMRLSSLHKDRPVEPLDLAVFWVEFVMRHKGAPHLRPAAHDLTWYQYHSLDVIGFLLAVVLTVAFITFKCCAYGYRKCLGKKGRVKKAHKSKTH

SMILES | Kinetics type [1] | Km at 45 min [2] | inhibition at 100 μM (UGT2B15) | Kinetics type (recombinant human UGT2B4) | Km at 45 min [3] | Kinetics type [4] | Glucuronide formation by UGT1A6 (recombinant human UGT1A6)
COc1ccccc1N1CCN(C[C@@H](O)COc2cccc3ccccc23)CC1 [R(+)-NAF] | Michaelis–Menten model | 48 µM | > 75% | substrate inhibition model | 40 µM | Michaelis–Menten model | No R(+)-NAF-G was detected
COc1ccccc1N1CCN(C[C@H](O)COc2cccc3ccccc23)CC1 [S(-)-NAF] | Michaelis–Menten model | 19 µM | > 75% | substrate inhibition model | 35 µM | substrate inhibition model | no activity
